From patent US20090124659A1, “Combination therapy using 1-aminocyclohexane derivatives and acetylcholinesterase and inhibitors” (priority 2002, published 2009)
Structures can show the parent of a compound that is named as a salt.

Experiments:
[1] = system: patients with moderate-to-severe AD; conditions: Week 24; memantine 20 mg/day or placebo added to stable donepezil
[2] = system: patients with moderate-to-severe AD; conditions: Week 24; memantine 20 mg/day or placebo added to stable donepezil; remark: listed apart in the source
[3] = 5 mg/day for 28 days in healthy subjects; cited from earlier work
[4] = system: patients with moderate-to-severe AD; conditions: Week 24; memantine 20 mg/day or placebo added to stable donepezil; remark: listed apart in the source
[5] = system: patients with moderate-to-severe AD; conditions: 24 weeks; groups of 202 and 201
[6] = humans; cited from earlier work
healthy young subjects = conditions: single 10 mg memantine alone or with multiple daily doses of 10 mg donepezil
[7] = system: human neuroblastoma cells SK-N-SH; test: APP processing in cultured SK-N-SH cells (Western immunoblotting or ELISA); type: cell-based; conditions: memantine 1-4 μM
Experimental: NMDA receptors have been also implicated in the signalling cascades affecting or affected by APP processing. […] The present inventor and co-workers have studied the effect of memantine (NMDA receptor antagonist) on the processing of APP in cultured human neuroblastoma cells SK-N-SH. Cells were treated with memantine (1-4 μM) or vehicle, and the levels of sAPP and βAP40 in the conditioned media and the total intracellular APP were measured by Western immunoblotting or ELISA using specific antibodies.

clinical = conditions: both, human, plasma, po
[8] = system: human neuroblastoma cells SK-N-SH; test: Cell viability and toxicity, MTT and LDH assays; conditions: memantine 1-4 μM
[9] = cited from earlier work
cytochrome P450 system = conditions: in vitro studies; cited from earlier work
[10] = system: human neuroblastoma cells; conditions: in the absence of any detectable cellular damage or toxicity; cited from earlier work

SMILES: COc1cc2c(cc1OC)C(=O)C(CC1CCN(Cc3ccccc3)CC1)C2 (racemic) [donepezil, (R,S)-1-benzyl-4-[(5,6-dimethoxy-1-indanon)-2yl]-methylpiperidine hydrochloride]
- CIBIC-Plus at Endpoint (LOCF), LS mean (SD) [1]: 4.7 (1.05)
- SIB, change from Baseline to Endpoint (LOCF), LS mean change (SE) [2]: −2.5 (0.69)
- time of peak plasma concentrations [3]: approximately 3 hours
- ADCS-ADL, change from Baseline to Endpoint (LOCF), LS mean change (SE) [4]: −3.4 (0.51)
- Agitation, % [5]: (11.9) %
- Confusion, % [5]: (2.0) %
- Constipation, % [5]: (1.5) %
- Coughing, % [5]: (1.0) %
- Depression, % [5]: (3.0) %
- Diarrhoea, % [5]: (8.5) %
- Dizziness, % [5]: (8.0) %
- Fall, % [5]: (7.0) %
- Fatigue, % [5]: (3.5) %
- Gait abnormal, % [5]: (1.0) %
- Headache, % [5]: (2.5) %
- Hypertension, % [5]: (1.5) %
- Inflicted injury, % [5]: (8.0) %
- Influenza-like symptoms, % [5]: (6.5) %
- Oedema peripheral, % [5]: (4.0) %
- Pain, % [5]: (0.5) %
- Pat. with any AE, % [5]: (71.6) %
- Somnolence, % [5]: (3.5) %
- Upper resp. tract infection, % [5]: (6.5) %
- Urinary incontinence, % [5]: (3.0) %
- Urinary tract infection, % [5]: (5.0) %
- Vomiting, % [5]: (3.0) %

SMILES: CC12CC3CC(C)(C1)CC(N)(C3)C2 [memantine, 1-amino-3,5-dimethyl adamantane]
- therapeutically effective circulating concentration [6]: 1 µM
- safety and tolerability (healthy young subjects): safe and well-tolerated
- levels of total intracellular APP [7]: without affecting
- sAPP level in the conditioned media [7]: decrease
- βAP40 level in the conditioned media [7]: decrease
- Cmax (clinical): 13 ng/mL
- Cmax (clinical; 10 mg): 12.8 ng/mL
- Tmax (clinical; 10 mg): 6.5 h
- cell viability and toxicity (MTT and LDH assays) [8]: not affected
- dose recovered, mainly in the urine ([9]; after administration of 14C memantine): 84%
- absolute bioavailability ([9]; in vivo, po): approximately 100%
- half-life ([9]; in vivo): 60 to 80 h
- potential of drug interactions with drugs metabolized via the cytochrome P450 system (cytochrome P450 system): low potential

SMILES: Cl.Nc1c2c(nc3ccccc13)CCCC2 [tacrine, 1,2,3,4-tetrahydro-9-aminoacridine hydrochloride]
- release of sAPPα, total βAP, βAP40 and βAP42 [10]: reduce
